Assay results published in US12448358B2, “Inhibitors of protein arginine deiminase 1 and methods of preparation and use thereof” (University of Massachusetts, priority 2019, dated 2025).

Key:
PAD1 = molecular target: T1, PAD1 (Mus musculus, UniProt Q9Z185); test: Histone H3 citrullination in mouse embryos (immunofluorescence, confocal microscopy); type: cell-based; settings: mouse embryos at the 4-cell stage, 100 μM inhibitor
T1 construct: endogenously expressed cellular PAD1 in mouse zygotes; endogenous in cells; host or cells: ICR mouse zygotes / 4-cell embryos from in vitro fertilization
T1 sequence (Q9Z185 1-662): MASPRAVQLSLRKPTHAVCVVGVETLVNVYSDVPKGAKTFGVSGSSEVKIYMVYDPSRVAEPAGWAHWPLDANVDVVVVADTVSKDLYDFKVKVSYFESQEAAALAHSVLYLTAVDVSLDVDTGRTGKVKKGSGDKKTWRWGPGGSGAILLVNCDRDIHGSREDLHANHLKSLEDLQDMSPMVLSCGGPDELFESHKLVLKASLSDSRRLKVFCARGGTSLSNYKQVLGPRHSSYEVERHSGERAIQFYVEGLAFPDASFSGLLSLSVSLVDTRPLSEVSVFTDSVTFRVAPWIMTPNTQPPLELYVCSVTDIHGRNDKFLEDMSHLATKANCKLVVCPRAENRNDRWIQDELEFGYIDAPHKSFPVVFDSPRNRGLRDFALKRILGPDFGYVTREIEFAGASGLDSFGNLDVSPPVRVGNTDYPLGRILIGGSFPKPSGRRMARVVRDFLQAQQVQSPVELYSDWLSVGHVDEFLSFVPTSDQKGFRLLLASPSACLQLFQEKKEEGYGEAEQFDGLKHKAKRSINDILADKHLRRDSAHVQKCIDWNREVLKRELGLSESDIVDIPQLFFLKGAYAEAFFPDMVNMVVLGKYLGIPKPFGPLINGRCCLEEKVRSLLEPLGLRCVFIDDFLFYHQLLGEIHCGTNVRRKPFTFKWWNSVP
Description: (§1) In Vitro Fertilization. Female ICR mice (4-6 weeks) were injected intraperitoneally with 10 international units (IU) of pregnant mare serum gonadotropin (PMSG) and after 46 h, 10 IU of human chorionicgonadotropin (hCG). After 16 h, cumulus masses were released from oviducts into HEPES-buffered HTF culture medium (HTF) (InVitro Care, Frederick, MD). Cauda epididymal mouse spermatozoa were released and placed in drops of HTF culture medium (InVitro Care). Then the sperm suspensions were added to the cumulus mass drops with a final concentration of approximately 1-3×10^5/mL. Zygotes were collected and transferred to KSOM medium containing 100 μM PAD1 inhibitor or equal volume of DMSO as a control. Then 4-cell and blastocyst stage embryos were collected after 48 and 100 h of culture, respectively.
Immunofluorescent and Confocal Microscopy. Embryos were fixed in 4% paraformaldehyde in PBS (pH 7.4) for 30 min and then permeabilized in 0.5% Triton X-100 for 30 min at room temperature. After blocking in 1% BSA/PBS at room temperature for 1 h, samples were incubated with anti-H3Cit2/8/17 antibody (Catalogue no. ab77164, Abcam) (1:100) at 4° C. for 12 h. After five washes, samples were incubated with FITC-conjugated secondary antibody for 1 h at room temperature. Nuclei were counterstained with DAPI for 5 min. […]

pronuclear mouse zygotes = test: Early embryo development of pronuclear mouse zygotes; type: cell-based; settings: 100 μM inhibitor, 100 h of culture, 87% of control zygotes reached blastocyst stage
Description: as §1

HEK293TPAD1 cells = test: Cytotoxicity studies (XTT) in HEK293TPAD1 cells; type: cell-based, human; settings: cytotoxicity EC50 (XTT, 24 h) over EC50 for histone H3 citrullination
Description: Cytotoxicity Studies. HEK293TPAD1 cells were seeded (2×10^4 cells/well) on 96-well plate and were allowed to grow in DMEM (supplemented with 10% heat-inactivated fetal bovine serum, 100 units/mL penicillin, 100 μg/mL streptomycin and 0.15 mg/mL hygromycin B) for 24 h. Cells were then treated with DMSO or various concentrations of inhibitor at 37° C. for 24 h. Activated XTT reagent (ATCC) was added to each well and cells were further incubated at 37° C. for 5 h. Cell viability was measured by recording the absorbance at 475 nm and 660 nm. Equation 3, Y=Bottom+(Top−Bottom)/[1+10^((logEC50-X)*Hillslope)] (3), was used to fit an eight-point dose-response curve to determine the EC50 values for inhibition of cell-proliferation using GraphPad Prism 7.03. Top and Bottom are plateaus of the dose-response curve, X is the log of inhibitor-concentration, Hillslope is the slope factor or Hill slope. All the experiments were performed at least in triplicate.

SMILES | Inhibition of histone H3 citrullination in embryos (PAD1) | Effect on early embryo development (pronuclear mouse zygotes) | Efficacy Index (the ratio of cytotoxicity to EC50) (HEK293TPAD1 cells)
N=C(CF)NCCC[C@H](NC(=O)c1cc(I)cc(I)c1O)c1nc2ccccc2[nH]1 [Compound 1] | dramatically inhibit histone H3 citrullination | dramatic arrest of embryo development at the morula stage | 17
N=C(CF)NCCC[C@H](NC(=O)c1cc(I)c(F)c(I)c1O)c1nc2ccccc2[nH]1 [Compound 19] | dramatically inhibit histone H3 citrullination | dramatic arrest of embryo development at the morula stage | 10
